Key:
[1] = target: GluN1/2A NMDARs (Rattus norvegicus, UniProt P35439+Q00959); type: cell-based; details: 10 μM compound; 100 μM NMDA plus 10 μM glycine; voltage pulse to +60 mV
[2] = target: GluN1/2A receptors (Rattus norvegicus, UniProt P35439+Q00959); type: cell-based; details: for δ, fraction of the total transmembrane voltage field felt by the blocker at its binding site: calculated from V0 by Equation 4; for V0, change in voltage that results in an e-fold change in the IC50: roughly twice the IC50 of each drug (3 μM 5, 5 μM 7, 2 μM 8, 1 μM 11), 9 voltages −105 to +55 mV, fit of Equation 3; for Hill coefficient (nH): tsA201 cells, GluN1/2A, 1 mM glutamate, −65 mV, fit of Equation 2
GluN1/2A receptors, sequence (Q00959 23-1464, other chains not shown): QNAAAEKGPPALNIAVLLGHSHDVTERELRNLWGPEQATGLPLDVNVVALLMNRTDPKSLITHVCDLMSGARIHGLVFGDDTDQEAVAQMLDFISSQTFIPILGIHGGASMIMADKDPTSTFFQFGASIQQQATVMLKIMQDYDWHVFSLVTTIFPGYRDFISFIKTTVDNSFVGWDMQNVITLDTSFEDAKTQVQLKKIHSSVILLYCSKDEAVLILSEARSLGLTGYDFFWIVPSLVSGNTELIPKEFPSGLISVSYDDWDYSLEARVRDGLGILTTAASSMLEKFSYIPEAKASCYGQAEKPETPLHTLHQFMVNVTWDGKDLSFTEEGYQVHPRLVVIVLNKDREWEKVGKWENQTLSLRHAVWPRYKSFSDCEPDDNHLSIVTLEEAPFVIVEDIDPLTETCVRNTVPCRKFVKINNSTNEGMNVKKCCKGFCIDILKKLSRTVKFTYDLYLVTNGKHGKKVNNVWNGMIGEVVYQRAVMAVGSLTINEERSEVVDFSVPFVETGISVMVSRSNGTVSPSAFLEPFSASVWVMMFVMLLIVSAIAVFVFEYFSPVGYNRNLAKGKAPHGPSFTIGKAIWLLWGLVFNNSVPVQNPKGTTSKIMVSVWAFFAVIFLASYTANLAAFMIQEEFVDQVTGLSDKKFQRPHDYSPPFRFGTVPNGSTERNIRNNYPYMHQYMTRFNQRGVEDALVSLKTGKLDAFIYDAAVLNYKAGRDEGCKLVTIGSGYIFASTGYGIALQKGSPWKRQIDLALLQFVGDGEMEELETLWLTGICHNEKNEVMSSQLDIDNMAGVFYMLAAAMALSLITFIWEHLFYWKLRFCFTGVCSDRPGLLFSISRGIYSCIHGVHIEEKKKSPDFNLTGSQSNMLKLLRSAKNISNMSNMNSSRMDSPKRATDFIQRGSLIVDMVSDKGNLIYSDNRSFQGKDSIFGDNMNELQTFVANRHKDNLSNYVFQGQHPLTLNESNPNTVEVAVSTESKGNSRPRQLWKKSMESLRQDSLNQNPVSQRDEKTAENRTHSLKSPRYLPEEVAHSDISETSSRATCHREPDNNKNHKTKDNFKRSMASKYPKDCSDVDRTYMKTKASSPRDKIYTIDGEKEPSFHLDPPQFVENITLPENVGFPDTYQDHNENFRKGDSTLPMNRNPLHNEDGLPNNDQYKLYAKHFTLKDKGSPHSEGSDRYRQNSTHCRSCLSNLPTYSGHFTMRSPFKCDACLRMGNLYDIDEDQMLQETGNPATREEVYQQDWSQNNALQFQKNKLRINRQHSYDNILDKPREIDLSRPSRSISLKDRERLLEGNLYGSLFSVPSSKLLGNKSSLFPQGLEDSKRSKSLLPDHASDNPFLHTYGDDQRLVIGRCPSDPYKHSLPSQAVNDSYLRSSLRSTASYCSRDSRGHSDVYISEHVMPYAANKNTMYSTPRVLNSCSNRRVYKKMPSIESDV

GluN1/2A NMDARs, sequence (Q00959 23-1464, other chains not shown): as above

| SMILES | percentage block at +60 mV [1] | δ, fraction of the total transmembrane voltage field felt by the blocker at its binding site [2] | V0, change in voltage that results in an e-fold change in the IC50 [2] | Hill coefficient (nH) [2] | IC50 [2] |
| --- | --- | --- | --- | --- | --- |
| CC12CC3CC1(C)C1(C)CC3(CN)CC21C.Cl [Compound 8, (3,4,8,9-Tetramethyltetracydo[4.4.0.0^3,9.0^4,8]dec-1-yl)methylamine hydrochloride] | 14.7 ± 4.5% | 0.87 ± 0.05 | 29.9 ± 1.9 mV | 1.01 ± 0.11 |  |
| CC12CC3CC(C)(C1)CC(N)(C3)C2 [Compound 5, memantine, reference compound] | 8.1 ± 4.0% | 0.91 ± 0.08 |  | 1.07 ± 0.27 | 1840 ± 390 nM |
| CC12CC3CC1(C)C1(C)CC3(N)CC21C.Cl [Compound 7, (3,4,8,9-Tetramethyltetracydo[4.4.0.0^3,9.0^4,8]dec-1-yl)amme hydrochloride] | 2.4 ± 5.1% | 0.99 ± 0.05 | 26.5 ± 1.8 mV | 0.98 ± 0.08 |  |

Reference: publication PMC6249113 (ACS chemical neuroscience, 2018)
